From paper PMC10250256, “A radiohybrid theranostics ligand labeled with fluorine-18 and lutetium-177 for fibroblast activation protein-targeted imaging and radionuclide therapy” (European Journal of Nuclear Medicine and Molecular Imaging, 2023)

Assays:
[1] = in vitro stability in PBS or murine serum (radio-HPLC); format: in vitro ADME
Protocol: [^18F]21 or [^177Lu]21 (50 μCi, 10 μL) was added to PBS (90 μL) or murine serum (90 μL) and the mixture was incubated at 37 °C for a certain time ([^18F]21: 2 h, [^177Lu]21: 8 d). The PBS mixture was injected directly into the radio-HPLC for analysis. The murine serum was precipitated with 0.1 mL of acetonitrile and centrifuged (10,000 rpm, 5 min). The supernatant was measured and analyzed by the radio-HPLC to determine the stability. For in vivo stability study, the radio tracers were injected into the tail vein of ICR mice and samples of blood were collected after a certain time post injection (pi) ([^18F]21: 4 h, [^177Lu]21: 9 h). The plasma proteins were precipitated using an equal volume of acetonitrile and centrifuged (10,000 rpm, 5 min). The RCP of radio tracer in supernatants were analyzed and quantified by radio-HPLC. The radio-HPLC method was as follows: A: 0.1% TFA in H2O, B: ACN, 0–10 min, 0–100% B. The flow rate was 1 mL/min, and the C18 column (4.6 × 150 mm, 5 μm, ZORBAX, Agilent) was used. When using HPLC to assess the stability of [^177Lu]21, the effluent was collected every 30 s due to its less radioactivity, and samples were measured by an automatic γ-counter (2480 Wizard2, Perkin Elmer). The counted samples were plotted as intensity (cpm) against fraction.

HT-1080 cells = experiment: cell uptake in HT-1080 (FAP negative) cells; format: cell-based, human
Protocol: The human fibrosarcoma cell lines HT-1080 and HT-1080-FAP transferred with human FAP gene were both cultured in Dulbecco modified Eagle medium supplemented with 10% fetal bovine serum (Gibco, USA) at 37℃/5% carbon dioxide. For cell uptake experiments, HT-1080-FAP cells (~ 1 × 10^5/well) or HT-1080 (~ 1 × 10^5/well) were seeded in 24-well plates for 24–48 h and incubated at 37℃ with radiolabeled compounds (74 kBq/well) in 0.5 mL of serum-free medium for indicated times. Non-specific binding was determined by co-incubating with 100 μM FAP inhibitor UAMC1110. For competitive FAP binding assays, HT-1080-FAP cells were incubated with [^177Lu]Lu-FAPI-04 (74 kBq/well) in the presence of different concentrations (10^−3–10^4 nM) of competing non-radioactive ligands. For internalization experiments, the radiotracer-incubated cells were washed twice with PBS (pH 7.4), followed by glycine–HCl (0,05 M, pH = 2.8) solution to distinguish between cell surface–bound (acid-releasable) and internalized (acid-resistant) radioligand. For efflux experiments, cells were preincubated with [^177Lu]21 or [^177Lu]Lu-FAPI-04 for 1 h and subsequently incubated at 37 °C in a medium free of radiotracer and serum for different time periods. […] Cell lysates were collected and the radioactivity was determined using a γ-counter.

HT-1080-FAP xenograft = experiment: SPECT imaging, HT-1080-FAP xenograft; format: in vivo, BALB/C-nu/nu mice; conditions: about 37 MBq i.v.
Protocol: All animal experiments were conducted in compliance with a protocol approved by the First Affiliated Hospital of Sun Yat-sen University Institutional Animal Care and Use Committee. BALB/C-nu/nu mice (4–5-week old with body weight of 16–22 g) were purchased from GemPharmatech Co., Ltd. Mice were housed under standard conditions with temperature and light control (12-h-light/12-h-dark cycle) and had free access to water and food. For the tumor model, HT-1080-FAP or HT-1080 cells (5 × 10^6) were subcutaneously injected into the right or left flank of nude mice, respectively. As the tumor diameter reached 3–4 mm, mice were treated with radioligands. Micro-PET and SPECT imaging studies, as well as biodistribution, were conducted when the tumor diameter reached 5–10 mm.
The mice bearing HT-1080-FAP or HT-1080 xenografts were injected with about 37 MBq of [^177Lu]21 via the tail vein, and SPECT (Siemens, Symbia Intevo Bold, Germany) was performed at 2 h to 8 d after injection. The SPECT parameters were as follows: medium-energy collimator, energy peaks of 113 and 208 keV, matrix of 256 × 256, and scan duration of 10 min.

CC(C)(C)[Si](F)(c1ccc(C(=O)NCC(NC(=O)CCC(C(=O)O)N2CCN(CC(=O)[O-])CCN(CC(=O)[O-])CCN(CC(=O)[O-])CC2)C(=O)NCC2CCC(C(=O)NCCCOc3ccc4nccc(C(=O)NCC(=O)N5CC(F)(F)CC5C#N)c4c3)CC2)cc1)C(C)(C)C.[177Lu+3] (centres unmarked) [[^177Lu]21]
RCP after incubating in saline and serum ([1]; 8 days, 37 °C): > 90%
in vitro stability ([1]; as summarised in discussion): > 90%
cell uptake in FAP negative cells (HT-1080 cells): Almost no uptakes
time pi up to which high accumulation was observed (SPECT) (HT-1080-FAP xenograft): up to 144 h
time up to which tumor uptake could be visualized (SPECT) (HT-1080-FAP xenograft): up to 6 days
